According to PubChem BioAssay AID1259408 (Genetic Toxicology Data Bank (GENE-TOX), 2018):
Activity calls are given as the source filed them. How the calls were made is not given here.

Tested on: GENE-TOX genotoxicity assays, various organisms and cells
Assay: GENE-TOX mutagenicity studies
Conditions: for call: Assay Type: In vivo carcinogenicity studies
[1] = Species/Cell Type: Bacillus subtilis (H17 vs M45), Assay Type: Rec-assay, spot test, DNA effects (bacterial DNA repair), Assay Code: REWT, Evaluation Type: Evaluation A (Pre-1980)
[2] = Species/Cell Type: Escherichia coli polA (W3119 vs P3478), Assay Type: Rec-assay, DNA effects (bacterial DNA repair), Assay Code: RE1T, Evaluation Type: Evaluation A (Pre-1980)
[3] = Species/Cell Type: Mammalian polychromatic erythrocytes, Assay Type: Micronucleus test, chromosome aberrations, Assay Code: MNTT, Evaluation Type: Evaluation A (Pre-1980)
[4] = Species/Cell Type: Nonhuman, Assay Type: Sister-chromatid exchange (SCE) in vivo, Assay Code: SC3+D, Dose Response: With dose response, Evaluation Type: Evaluation B (Post-1980)
[5] = Species/Cell Type: Saccharomyces cerevisiae, Assay Type: Mitotic recombination or gene conversion, Assay Code: YEH-, Evaluation Type: Evaluation A (Pre-1980)
[6] = Species/Cell Type: Salmonella typhimurium (one or more of the five standard strains: TA98, TA100, TA1535, TA1537, and TA1538), Assay Type: Histidine reverse gene mutation, Ames assay, Assay Code: SALT, Evaluation Type: Evaluation A (Pre-1980)
[7] = Species/Cell Type: Nonhuman, Assay Code: CCG+, Evaluation Type: Evaluation A (Pre-1980)
[8] = Species/Cell Type: Rodents, Sex: Male, Assay Type: Dominant lethal test, Assay Code: DLT-, Evaluation Type: Evaluation A (Pre-1980)
[9] = Species/Cell Type: Saccharomyces cerevisiae, Assay Type: Mitotic recombination or gene conversion, Assay Code: YEC-, Evaluation Type: Evaluation A (Pre-1980)
[10] = Species/Cell Type: Salmonella typhimurium (one or more of the five standard strains: TA98, TA100, TA1535, TA1537, and TA1538), Assay Type: Histidine reverse gene mutation, Ames assay, Assay Code: SAL+*, Activation: With metabolic activation, Evaluation Type: Evaluation A (Pre-1980)
[11] = Species/Cell Type: Syrian hamster embryo (SA7/SHE) cells, Assay Type: Cell transformation, viral enhanced, Assay Code: CT7+, Evaluation Type: Evaluation A (Pre-1980)
[12] = Species/Cell Type: Human lymphocytes, Assay Type: Sister-chromatid exchange (SCE) in vitro, Assay Code: SCL+, Evaluation Type: Evaluation B (Post-1980)
[13] = Species/Cell Type: Human, Assay Type: Sister-chromatid exchange (SCE) in vitro, Assay Code: SC1+, Evaluation Type: Evaluation B (Post-1980)
[14] = Species/Cell Type: Nonhuman, Assay Code: CCGT, Evaluation Type: Evaluation A (Pre-1980)
[15] = Species/Cell Type: Salmonella typhimurium (one or more of the five standard strains: TA98, TA100, TA1535, TA1537, and TA1538), Assay Type: Histidine reverse gene mutation, Ames assay, Assay Code: SAL+, Evaluation Type: Evaluation A (Pre-1980)
[16] = Species/Cell Type: Rat, Sex: Male, Assay Type: Sperm morphology, Assay Code: SPA+, Evaluation Type: Evaluation A (Pre-1980)
[17] = Species/Cell Type: Salmonella typhimurium (one or more of the five standard strains: TA98, TA100, TA1535, TA1537, and TA1538), Assay Type: Histidine reverse gene mutation, Ames assay, Assay Code: SAL-, Evaluation Type: Evaluation A (Pre-1980)

COC1=CC(=O)C[C@@H](C)[C@]12Oc1c(Cl)c(OC)cc(OC)c1C2=O
mutagenic call (Species/Cell Type: Allium cepa, Assay Type: Chromosome aberrations, Assay Code: ALC+, Evaluation Type: Evaluation A (Pre-1980)): active; positive | mutagenic call (Species/Cell Type: Aspergillus nidulans, Assay Type: Aneuploidy, chromosome aberrations, Assay Code: ASN+, Evaluation Type: Evaluation A (Pre-1980)): active; positive | mutagenic call (Species/Cell Type: Aspergillus nidulans, Assay Type: Mitotic recombination, Assay Code: ASGT, Evaluation Type: Evaluation A (Pre-1980)): no conclusion | mutagenic call [1]: no conclusion | mutagenic call [2]: no conclusion | mutagenic call [3]: no conclusion | mutagenic call (Species/Cell Type: Mouse, Sex: Male, Assay Type: Sperm morphology, Assay Code: SPI+, Evaluation Type: Evaluation A (Pre-1980)): active; positive | call (Species/Cell Type: Nonhuman, Assay Code: CCG+L, Evaluation Type: Evaluation A (Pre-1980)): active; positive | mutagenic call [4]: active; positive | mutagenic call [5]: inactive; negative | mutagenic call [6]: no conclusion

CN(C)N
mutagenic call (Species/Cell Type: Human diploid fibroblasts, Assay Type: Unscheduled DNA synthesis (UDS) in vitro, DNA effects, Assay Code: UDH-*, Activation: With metabolic activation, Evaluation Type: Evaluation A (Pre-1980)): inactive; negative | mutagenic call [3]: no conclusion | mutagenic call (Species/Cell Type: Mouse lymphoma (L5178Y) cells, Assay Type: Forward gene mutation at the thymidine kinase (TK) locus, chromosome aberrations, Assay Code: L51-*, Activation: With metabolic activation, Evaluation Type: Evaluation A (Pre-1980)): inactive; negative | mutagenic call (Species/Cell Type: Mouse, Sex: Male, Assay Type: Sperm morphology, Assay Code: SPI-, Evaluation Type: Evaluation A (Pre-1980)): inactive; negative | call [7]: active; positive | mutagenic call [8]: inactive; negative | mutagenic call [9]: inactive; negative | mutagenic call [10]: active; positive | mutagenic call [11]: active; positive

C=COC(N)=O
mutagenic call [12]: active; positive | mutagenic call [13]: active; positive | mutagenic call (Species/Cell Type: Nonhuman, Assay Type: Sister-chromatid exchange (SCE) in vitro, Assay Code: SC2+D, Dose Response: With dose response, Evaluation Type: Evaluation B (Post-1980)): active; positive | mutagenic call [4]: active; positive

Cc1c2ccccc2c(C)c2c1cc(O)c1ccccc12
mutagenic call (Species/Cell Type: Chinese hamster lung (V79) cells, Assay Type: Forward gene mutation at the HPRT or ouabain locus, Assay Code: V79-*, Activation: With metabolic activation, Evaluation Type: Evaluation A (Pre-1980)): inactive; negative | call [14]: no conclusion

O=C(COc1ccc(Br)cc1CN1CCCCC1)N/N=C\c1ccccc1
mutagenic call (Species/Cell Type: Saccharomyces cerevisiae, Assay Type: Reverse gene mutation, Assay Code: YERT, Evaluation Type: Evaluation A (Pre-1980)): no conclusion

CCCCN(CCC(=O)O)N=O
mutagenic call [15]: active; positive

Nc1ccc2ccc3ccccc3c2n1
mutagenic call [10]: active; positive

CNc1ccc(C(=C2C=CC(=[N+](C)C)C=C2)c2ccc(N(C)C)cc2)cc1
mutagenic call (Species/Cell Type: Saccharomyces cerevisiae, Assay Type: Reverse gene mutation, Assay Code: YER-, Evaluation Type: Evaluation A (Pre-1980)): inactive; negative

ClC(Cl)(Cl)C1CO1 (stereo not given)
mutagenic call (Species/Cell Type: Drosophila melanogaster, Assay Type: Sex-linked recessive lethal gene mutation, Assay Code: SRLT, Evaluation Type: Evaluation A (Pre-1980)): no conclusion | mutagenic call [12]: active; positive | mutagenic call [13]: active; positive | mutagenic call (Species/Cell Type: Saccharomyces cerevisiae, Assay Type: Mitotic recombination or gene conversion, Assay Code: YEH+/-*, Activation: With metabolic activation, Evaluation Type: Evaluation A (Pre-1980)): inactive; positive without activation, negative with activation

O=C(O)c1ccc2ccccc2n1
mutagenic call [6]: no conclusion

NC[C@H](O)CCl
mutagenic call [16]: active; positive | mutagenic call [8]: inactive; negative

Nc1ccc([N+](=O)[O-])cc1O
mutagenic call (Species/Cell Type: Neurospora crassa, Assay Type: Aneuploidy, chromosome aberrations, Assay Code: NEN-, Evaluation Type: Evaluation A (Pre-1980)): inactive; negative | mutagenic call [8]: inactive; negative | mutagenic call [15]: active; positive

O=C(CCl)NCO
mutagenic call (Species/Cell Type: Mammalian polychromatic erythrocytes, Assay Type: Micronucleus test, chromosome aberrations, Assay Code: MNT+, Evaluation Type: Evaluation B (Post-1980)): active; positive

CNC(=O)Oc1cc(C)c(N(C)C)c(C)c1
call (Species/Cell Type: Nonhuman, Assay Code: CCG-L, Evaluation Type: Evaluation A (Pre-1980)): inactive; negative

Cc1cc(C)c(N=Nc2c(O)c(S(=O)(=O)O)cc3cc(S(=O)(=O)O)ccc23)cc1C
mutagenic call [1]: no conclusion | mutagenic call (Species/Cell Type: Bacillus subtilis (H17 vs M45T), Assay Type: Rec-assay, spot test, DNA effects (bacterial DNA repair), Assay Code: REXT, Evaluation Type: Evaluation A (Pre-1980)): no conclusion | call [7]: active; positive | mutagenic call [9]: inactive; negative | mutagenic call [17]: inactive; negative

COc1ccc([C@@H]2CC(=O)c3c(O)cc(O[C@@H]4O[C@H](CO)[C@@H](O)[C@H](O)[C@H]4O[C@@H]4O[C@@H](C)[C@H](O)[C@@H](O)[C@H]4O)cc3O2)cc1O
mutagenic call (Species/Cell Type: Salmonella typhimurium, Assay Type: Forward and reverse gene mutation, body fluid assay, Assay Code: BFU-, Evaluation Type: Evaluation A (Pre-1980)): inactive; negative

CCN(CCCl)CCCNc1ccnc2cc(Cl)ccc12
mutagenic call (Species/Cell Type: Neurospora crassa, Assay Type: Reverse gene mutation, Assay Code: NER+, Evaluation Type: Evaluation A (Pre-1980)): active; positive

Clc1ccc(Br)cc1
mutagenic call [5]: inactive; negative | mutagenic call [17]: inactive; negative

CN(C)c1ccc(N=Nc2ccc3nc4ccc(N)cc4[n+](-c4ccccc4)c3c2)cc1
mutagenic call (Species/Cell Type: Bacillus subtilis (H17 vs M45), Assay Type: Rec-assay, spot test, DNA effects (bacterial DNA repair), Assay Code: REW-, Evaluation Type: Evaluation A (Pre-1980)): inactive; negative

O[C@@H]1[C@@H]2O[C@@H]2c2cc3c(ccc4ccccc43)cc2[C@H]1O
mutagenic call (Species/Cell Type: Chinese hamster lung (V79) cells, Assay Type: Forward gene mutation at the HPRT or ouabain locus, Assay Code: V79+, Evaluation Type: Evaluation A (Pre-1980)): active; positive | mutagenic call [15]: active; positive

NC1CCCCC1
mutagenic call (Species/Cell Type: Drosophila melanogaster, Assay Type: Aneuploidy, whole sex chromosome loss, chromosome aberrations, Assay Code: DACT, Evaluation Type: Evaluation A (Pre-1980)): no conclusion | mutagenic call (Species/Cell Type: Drosophila melanogaster, Assay Type: Sex-linked recessive lethal gene mutation, Assay Code: SRL-, Evaluation Type: Evaluation A (Pre-1980)): inactive; negative | mutagenic call (Species/Cell Type: Drosophila melanogaster, Sex: Male, Assay Type: Heritable translocation test, chromosome aberrations, Assay Code: DHT-, Evaluation Type: Evaluation A (Pre-1980)): inactive; negative | mutagenic call [2]: no conclusion | mutagenic call (Species/Cell Type: Human lymphocytes or leukocytes, Assay Type: Chromosome aberrations in vitro, Assay Code: CY7-, Evaluation Type: Evaluation A (Pre-1980)): inactive; negative | mutagenic call (Species/Cell Type: Mammalian germ cells, Sex: Male, Assay Type: Chromosome aberrations in vivo, Assay Code: CY9+, Evaluation Type: Evaluation A (Pre-1980)): active; positive | mutagenic call (Species/Cell Type: Nonhuman bone marrow, Assay Type: Chromosome aberrations, in vivo, Assay Code: CY#-, Evaluation Type: Evaluation A (Pre-1980)): inactive; negative | mutagenic call (Species/Cell Type: Nonhuman, Assay Type: Chromosome aberrations in vitro, Assay Code: CY&+D, Dose Response: With dose response, Evaluation Type: Evaluation A (Pre-1980)): active; positive | call [14]: no conclusion | mutagenic call [16]: active; positive | mutagenic call [8]: inactive; negative | mutagenic call (Species/Cell Type: Rodents, Sex: Male, Assay Type: Dominant lethal test, Assay Code: DLTT, Evaluation Type: Evaluation A (Pre-1980)): no conclusion | mutagenic call (Species/Cell Type: Salmonella typhimurium, Serratia marcesens, Assay Type: Forward and reverse gene mutation, host-mediated assay, Assay Code: HM2T, Evaluation Type: Evaluation A (Pre-1980)): no conclusion | mutagenic call [11]: active; positive

CCN(CCO)CCNc1ccc(CO)c2sc3cc(Cl)ccc3c(=O)c12
mutagenic call (Species/Cell Type: Mouse lymphoma (L5178Y) cells, Assay Type: Forward gene mutation at the thymidine kinase (TK) locus, chromosome aberrations, Assay Code: L51+, Evaluation Type: Evaluation A (Pre-1980)): active; positive

CC(=O)OC[C@H]1O[C@@H](Oc2ccc3c(c2O)C(=O)c2ccccc2C3=O)[C@H](OC(C)=O)[C@@H](OC(C)=O)[C@@H]1OC(C)=O
mutagenic call [6]: no conclusion
